Source: ChEMBL document CHEMBL4765455, “Design, synthesis, and biological evaluations of novel 3-amino-4-ethynyl indazole derivatives as Bcr-Abl kinase inhibitors with potent cellular antileukemic activity” (Eur J Med Chem, 2020)

Tests used:
[1] = target: Macrophage colony-stimulating factor 1 receptor (Homo sapiens, UniProt P07333); test: Inhibition of FMS (unknown origin) at 1 uM relative to control
[2] = target: Focal adhesion kinase 1 (Homo sapiens) (UniProt Q05397); test: Inhibition of FAK/PTK2 (unknown origin) at 1 uM relative to control
Chain of Focal adhesion kinase 1 (Homo sapiens) (Q05397 2-1052 limits assumed): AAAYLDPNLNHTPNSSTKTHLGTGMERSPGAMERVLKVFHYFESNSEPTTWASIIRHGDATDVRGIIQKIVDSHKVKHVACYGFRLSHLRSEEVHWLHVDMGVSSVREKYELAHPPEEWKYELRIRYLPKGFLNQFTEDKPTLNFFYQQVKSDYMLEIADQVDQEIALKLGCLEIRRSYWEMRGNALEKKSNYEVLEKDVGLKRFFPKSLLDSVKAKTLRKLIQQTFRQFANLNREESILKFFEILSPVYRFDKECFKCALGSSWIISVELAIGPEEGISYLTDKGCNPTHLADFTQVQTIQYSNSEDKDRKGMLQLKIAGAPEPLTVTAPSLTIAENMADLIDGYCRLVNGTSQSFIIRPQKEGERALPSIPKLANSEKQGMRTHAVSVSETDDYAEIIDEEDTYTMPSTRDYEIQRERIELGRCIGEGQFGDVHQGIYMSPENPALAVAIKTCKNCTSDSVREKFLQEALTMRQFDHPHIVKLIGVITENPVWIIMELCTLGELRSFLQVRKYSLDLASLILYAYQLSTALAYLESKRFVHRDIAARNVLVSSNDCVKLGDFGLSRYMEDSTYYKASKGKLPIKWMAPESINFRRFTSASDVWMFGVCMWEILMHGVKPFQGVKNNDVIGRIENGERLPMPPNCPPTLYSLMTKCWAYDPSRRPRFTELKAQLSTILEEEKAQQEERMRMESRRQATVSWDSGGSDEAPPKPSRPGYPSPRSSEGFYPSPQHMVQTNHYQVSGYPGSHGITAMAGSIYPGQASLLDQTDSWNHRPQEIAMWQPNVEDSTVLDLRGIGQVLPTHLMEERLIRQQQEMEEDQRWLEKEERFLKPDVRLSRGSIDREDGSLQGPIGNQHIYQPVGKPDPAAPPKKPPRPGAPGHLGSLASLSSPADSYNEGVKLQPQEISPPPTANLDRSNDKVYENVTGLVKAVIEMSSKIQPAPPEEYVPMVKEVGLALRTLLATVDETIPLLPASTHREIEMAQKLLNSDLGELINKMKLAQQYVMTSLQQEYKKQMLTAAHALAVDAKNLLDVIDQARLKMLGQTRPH

[3] = target: Insulin-like growth factor 1 receptor (Homo sapiens) (UniProt P08069); test: Inhibition of IGF1R (unknown origin) at 1 uM relative to control
Chain of Insulin-like growth factor 1 receptor (Homo sapiens) (P08069 31-736 limits assumed): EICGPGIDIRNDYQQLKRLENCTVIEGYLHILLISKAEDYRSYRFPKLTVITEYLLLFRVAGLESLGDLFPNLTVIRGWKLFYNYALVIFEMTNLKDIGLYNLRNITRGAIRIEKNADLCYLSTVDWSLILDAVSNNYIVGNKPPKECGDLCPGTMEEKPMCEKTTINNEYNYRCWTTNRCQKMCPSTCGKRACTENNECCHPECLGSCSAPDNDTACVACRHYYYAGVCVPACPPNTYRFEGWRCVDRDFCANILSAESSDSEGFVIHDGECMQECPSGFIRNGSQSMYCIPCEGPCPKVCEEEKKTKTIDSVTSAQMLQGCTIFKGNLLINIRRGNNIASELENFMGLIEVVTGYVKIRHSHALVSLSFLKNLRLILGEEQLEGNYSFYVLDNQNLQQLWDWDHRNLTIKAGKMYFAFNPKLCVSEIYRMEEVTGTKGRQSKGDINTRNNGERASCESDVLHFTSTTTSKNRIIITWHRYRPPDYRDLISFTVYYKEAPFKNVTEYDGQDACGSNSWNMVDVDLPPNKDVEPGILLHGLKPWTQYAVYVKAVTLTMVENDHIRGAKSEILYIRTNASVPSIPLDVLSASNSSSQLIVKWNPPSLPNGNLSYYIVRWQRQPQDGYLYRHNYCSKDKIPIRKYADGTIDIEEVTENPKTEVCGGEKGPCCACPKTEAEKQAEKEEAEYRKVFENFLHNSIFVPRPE
Chain of Insulin-like growth factor 1 receptor (Homo sapiens) (P08069 741-1367 limits assumed): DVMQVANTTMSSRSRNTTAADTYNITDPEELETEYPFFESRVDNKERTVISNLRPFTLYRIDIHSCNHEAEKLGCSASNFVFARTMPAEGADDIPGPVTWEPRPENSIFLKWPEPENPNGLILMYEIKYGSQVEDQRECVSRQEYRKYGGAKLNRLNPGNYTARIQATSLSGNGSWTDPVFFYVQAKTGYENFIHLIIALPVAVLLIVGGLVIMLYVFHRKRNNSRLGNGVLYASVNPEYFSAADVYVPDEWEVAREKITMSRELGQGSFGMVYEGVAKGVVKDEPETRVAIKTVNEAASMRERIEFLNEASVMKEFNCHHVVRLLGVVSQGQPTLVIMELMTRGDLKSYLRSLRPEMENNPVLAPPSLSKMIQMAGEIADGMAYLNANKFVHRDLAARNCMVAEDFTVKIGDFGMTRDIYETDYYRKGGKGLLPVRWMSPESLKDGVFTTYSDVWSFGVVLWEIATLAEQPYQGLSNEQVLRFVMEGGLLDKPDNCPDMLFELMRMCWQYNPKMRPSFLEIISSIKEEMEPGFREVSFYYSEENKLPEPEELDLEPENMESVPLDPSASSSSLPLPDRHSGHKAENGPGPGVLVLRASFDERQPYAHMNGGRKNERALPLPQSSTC

[4] = target: Serine/threonine-protein kinase pim-1 (Homo sapiens) (UniProt P11309); test: Inhibition of PIM1 (unknown origin) at 1 uM relative to control
Chain of Serine/threonine-protein kinase pim-1 (Homo sapiens) (P11309 whole entry, looked up): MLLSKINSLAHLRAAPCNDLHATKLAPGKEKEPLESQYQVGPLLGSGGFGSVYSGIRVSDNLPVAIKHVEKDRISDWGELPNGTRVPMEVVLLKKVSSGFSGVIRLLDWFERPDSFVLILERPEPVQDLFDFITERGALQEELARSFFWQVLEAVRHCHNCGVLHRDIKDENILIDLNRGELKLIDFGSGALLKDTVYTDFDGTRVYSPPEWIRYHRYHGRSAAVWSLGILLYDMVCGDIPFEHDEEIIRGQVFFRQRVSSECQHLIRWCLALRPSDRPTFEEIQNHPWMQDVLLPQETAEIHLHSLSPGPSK

[5] = target: Serine/threonine-protein kinase PLK1 (Homo sapiens) (UniProt P53350); test: Inhibition of PLK1 (unknown origin) at 1 uM relative to control
Chain of Serine/threonine-protein kinase PLK1 (Homo sapiens) (P53350 whole entry): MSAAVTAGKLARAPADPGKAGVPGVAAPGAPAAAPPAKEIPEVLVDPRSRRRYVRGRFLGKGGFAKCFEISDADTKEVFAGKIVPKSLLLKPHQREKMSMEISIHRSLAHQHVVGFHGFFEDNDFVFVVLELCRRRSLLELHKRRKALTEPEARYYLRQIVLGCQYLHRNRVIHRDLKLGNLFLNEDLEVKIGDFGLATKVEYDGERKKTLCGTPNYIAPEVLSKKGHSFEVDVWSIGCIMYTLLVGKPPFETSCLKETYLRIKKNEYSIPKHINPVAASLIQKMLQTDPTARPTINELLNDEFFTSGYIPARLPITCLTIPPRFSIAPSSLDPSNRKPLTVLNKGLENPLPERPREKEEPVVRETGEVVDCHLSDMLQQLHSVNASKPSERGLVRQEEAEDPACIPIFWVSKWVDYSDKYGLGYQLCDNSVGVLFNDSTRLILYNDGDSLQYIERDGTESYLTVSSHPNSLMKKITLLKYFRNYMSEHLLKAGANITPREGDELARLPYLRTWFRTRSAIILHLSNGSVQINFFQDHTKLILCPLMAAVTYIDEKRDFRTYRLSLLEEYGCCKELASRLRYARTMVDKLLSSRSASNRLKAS

[6] = target: Proto-oncogene tyrosine-protein kinase ROS (Homo sapiens) (UniProt P08922); test: Inhibition of ROS/ROS1 (unknown origin) at 1 uM relative to control
[7] = target: Receptor-type tyrosine-protein kinase FLT3 (Homo sapiens, UniProt P36888); test: Inhibition of FLT3 (unknown origin) in presence of ATP
Chain of Receptor-type tyrosine-protein kinase FLT3 (P36888 whole entry): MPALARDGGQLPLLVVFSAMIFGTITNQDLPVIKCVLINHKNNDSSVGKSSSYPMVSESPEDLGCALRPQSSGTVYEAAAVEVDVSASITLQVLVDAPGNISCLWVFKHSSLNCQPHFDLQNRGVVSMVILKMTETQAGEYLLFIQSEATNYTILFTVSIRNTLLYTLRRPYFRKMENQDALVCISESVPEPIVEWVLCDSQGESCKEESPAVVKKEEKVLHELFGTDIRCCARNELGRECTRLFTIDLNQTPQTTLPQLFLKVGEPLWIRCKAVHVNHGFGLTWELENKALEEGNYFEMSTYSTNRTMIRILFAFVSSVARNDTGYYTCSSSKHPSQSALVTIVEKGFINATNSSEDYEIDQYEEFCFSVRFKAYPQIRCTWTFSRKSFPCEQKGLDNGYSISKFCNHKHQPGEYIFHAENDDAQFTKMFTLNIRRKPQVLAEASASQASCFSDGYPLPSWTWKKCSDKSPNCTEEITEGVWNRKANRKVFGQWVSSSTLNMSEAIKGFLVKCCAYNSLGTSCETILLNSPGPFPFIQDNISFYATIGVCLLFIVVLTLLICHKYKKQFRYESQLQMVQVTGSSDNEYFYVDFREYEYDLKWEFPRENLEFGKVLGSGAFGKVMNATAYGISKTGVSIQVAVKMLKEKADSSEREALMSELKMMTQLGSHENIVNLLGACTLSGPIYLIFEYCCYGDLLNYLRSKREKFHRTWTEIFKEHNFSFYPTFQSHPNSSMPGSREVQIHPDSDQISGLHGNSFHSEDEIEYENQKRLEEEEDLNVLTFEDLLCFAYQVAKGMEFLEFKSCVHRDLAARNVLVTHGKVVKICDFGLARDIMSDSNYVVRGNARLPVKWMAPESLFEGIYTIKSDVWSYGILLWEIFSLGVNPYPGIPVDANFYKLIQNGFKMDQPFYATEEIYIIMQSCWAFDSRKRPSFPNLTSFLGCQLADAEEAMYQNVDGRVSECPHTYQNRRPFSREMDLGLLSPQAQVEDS

[8] = species on record: Homo sapiens; test: Selectivity index, ratio of IC50 for FMS (unknown origin) to IC50 for Bcr-Abl (unknown origin)
[9] = Antiproliferative activity against human L132 cells assessed as cell growth inhibition incubated for 72 hrs by MTT assay; format: cell-based
[10] = test system: CCRF-CEM; test: Antiproliferative activity against human CCRF-CEM cells assessed as cell growth inhibition at 10 uM measured after 48 hrs by SRB assay relative to control; format: functional; conditions: read-out: GI
[11] = test system: HL-60(TB); test: Antiproliferative activity against human HL-60(TB) cells assessed as cell growth inhibition at 10 uM measured after 48 hrs by SRB assay relative to control; format: functional; conditions: read-out: GI
[12] = test system: RPMI-8226; test: Antiproliferative activity against human RPMI-8226 cells assessed as cell growth inhibition measured after 48 hrs by SRB assay; format: functional
[13] = test system: SR; test: Antiproliferative activity against human SR cells assessed as cell growth inhibition measured after 48 hrs by SRB assay; format: functional
[14] = species on record: Homo sapiens; test: Selectivity index, ratio of IC50 for human ERG to EC50 for ABL1 (unknown origin) expressed in human HEK293 cells; format: cell-based
[15] = Mean residence time in ICR mouse at 10 mg/kg, po measured up to 8 hrs by LC-MS/MS analysis; format: ADME, organism-based; conditions: in vivo
[16] = Volume of distribution at steady state in ICR mouse at 5 mg/kg, iv measured up to 8 hrs by LC-MS/MS analysis; format: ADME, organism-based; conditions: in vivo, read-out: Vdss
[17] = Oral bioavailability in ICR mouse at 10 mg/kg measured up to 8 hrs by LC-MS/MS analysis; format: ADME, organism-based; conditions: in vivo

## Nc1n[nH]c2cccc(C#Cc3cccc(NC(=O)c4ccc(N5CCOCC5)c(C(F)(F)F)c4)c3)c12
[1]
  inhibition: 87.8%
[2]
  inhibition: < 30%
[3]
  inhibition: < 30%
[4]
  inhibition: < 30%
[5]
  inhibition: < 30%
[6]
  inhibition: < 30%
[7]
  IC50: 535 nM
[8]
  Ratio IC50: 3.5
[9]
  GI50 at 72 h: 9270 nM
[10]
  inhibition of growth at 10 µM: 89.5%
[11]
  inhibition of growth at 10 µM: 98%
[12]
  GI50: 1980 nM
[13]
  GI50: 2400 nM
[14]
  Ratio IC50/EC50: 233
[15]
  MRT: 1.3 h
[16]
  Vd: 1.4 L/kg
[17]
  bioavailability: 0.6%
